Results as given in PubChem BioAssay AID2060510 (Molecular Pharmacology Branch, DTP, NCI, 2025).

Tested on: 439559-082-T-J2-PDC spheroids viability
Test: Anticancer human tumor 439559-082-T-J2-PDC patient-derived colon adenocarcinoma cell line growth inhibition [GQUAD]
Details: for IC50: curve of first compound; for viability, T/C: stronger effect = lower value
Method in brief: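 Viability of tumor cells grown as complex spheroids with endothelial and stromal cells, exposed to drug combinations. Top concentration at or near clinical Cmax (else 10 microM), diluted in half-log increments.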

[1] = second compound 0.0316 µM, first compound 0.0316 µM
[2] = second compound 0.0316 µM, first compound 0.1 µM
[3] = second compound 0.0316 µM, first compound 0.316 µM
[4] = second compound 0.0316 µM, first compound 1 µM
[5] = second compound 0.0316 µM, first compound 3.16 µM
[6] = second compound 0.0316 µM, first compound 10 µM
[7] = second compound 0.1 µM, first compound 0.0316 µM
[8] = second compound 0.1 µM, first compound 0.1 µM
[9] = second compound 0.1 µM, first compound 0.316 µM
[10] = second compound 0.1 µM, first compound 1 µM
[11] = second compound 0.1 µM, first compound 3.16 µM
[12] = second compound 0.1 µM, first compound 10 µM
[13] = second compound 0.316 µM, first compound 0.0316 µM
[14] = second compound 0.316 µM, first compound 0.1 µM
[15] = second compound 0.316 µM, first compound 0.316 µM
[16] = second compound 0.316 µM, first compound 1 µM
[17] = second compound 0.316 µM, first compound 3.16 µM
[18] = second compound 0.316 µM, first compound 10 µM
[19] = second compound 1 µM, first compound 0.0316 µM
[20] = second compound 1 µM, first compound 0.1 µM
[21] = second compound 1 µM, first compound 0.316 µM
[22] = second compound 1 µM, first compound 1 µM
[23] = second compound 1 µM, first compound 3.16 µM
[24] = second compound 1 µM, first compound 10 µM
[25] = second compound 3.16 µM, first compound 0.0316 µM
[26] = second compound 3.16 µM, first compound 0.1 µM
[27] = second compound 3.16 µM, first compound 0.316 µM
[28] = second compound 3.16 µM, first compound 1 µM
[29] = second compound 3.16 µM, first compound 3.16 µM
[30] = second compound 3.16 µM, first compound 10 µM
[31] = second compound 10 µM, first compound 0.0316 µM
[32] = second compound 10 µM, first compound 0.1 µM
[33] = second compound 10 µM, first compound 0.316 µM
[34] = second compound 10 µM, first compound 1 µM
[35] = second compound 10 µM, first compound 3.16 µM
[36] = second compound 10 µM, first compound 10 µM
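Also: spheroids exposed to the agents for 7 days before readout.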
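For viability, T/C in this document: percent of luminescence signal in DMSO vehicle wells taken as 100% viability.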

SMILES: O=c1[nH]cc(F)c(=O)[nH]1 + Cc1[nH]c2ccc(F)cc2c1-c1nc2c3cccnc3c3ncccc3c2[nH]1
- IC50 (second compound 0.0316 µM): > 10 µM
- IC50 (second compound 0.1 µM): > 10 µM
- IC50 (second compound 0.316 µM): > 10 µM
- IC50 (second compound 1 µM): > 10 µM
- IC50 (second compound 3.16 µM): > 10 µM
- IC50 (second compound 10 µM): > 10 µM
- viability, T/C [1]: 90.7%
- viability, T/C [2]: 95.5%
- viability, T/C [3]: 87.7%
- viability, T/C [4]: 78.9%
- viability, T/C [5]: 76.8%
- viability, T/C [6]: 82.3%
- viability, T/C [7]: 101%
- viability, T/C [8]: 89.8%
- viability, T/C [9]: 83.3%
- viability, T/C [10]: 75.1%
- viability, T/C [11]: 73.3%
- viability, T/C [12]: 83.4%
- viability, T/C [13]: 101%
- viability, T/C [14]: 99.2%
- viability, T/C [15]: 83.7%
- viability, T/C [16]: 74.8%
- viability, T/C [17]: 79.5%
- viability, T/C [18]: 76.3%
- viability, T/C [19]: 91.9%
- viability, T/C [20]: 96.3%
- viability, T/C [21]: 79.1%
- viability, T/C [22]: 72.8%
- viability, T/C [23]: 70.6%
- viability, T/C [24]: 72.3%
- viability, T/C [25]: 103%
- viability, T/C [26]: 88.8%
- viability, T/C [27]: 76.5%
- viability, T/C [28]: 65%
- viability, T/C [29]: 62.5%
- viability, T/C [30]: 59.1%
- viability, T/C [31]: 82.2%
- viability, T/C [32]: 81.9%
- viability, T/C [33]: 67.9%
- viability, T/C [34]: 59.3%
- viability, T/C [35]: 57.5%
- viability, T/C [36]: 59.8%

SMILES: Nc1ccn(C2OC(CO)C(O)C2(F)F)c(=O)n1 (stereo unspecified) + Cc1[nH]c2ccc(F)cc2c1-c1nc2c3cccnc3c3ncccc3c2[nH]1
- IC50 (second compound 0.0316 µM): 0.375 µM
- IC50 (second compound 0.1 µM): 0.468 µM
- IC50 (second compound 0.316 µM): 0.362 µM
- IC50 (second compound 1 µM): 0.304 µM
- IC50 (second compound 3.16 µM): 0.203 µM
- IC50 (second compound 10 µM): 0.211 µM
- viability, T/C [1]: 84.5%
- viability, T/C [2]: 76.7%
- viability, T/C [3]: 51.8%
- viability, T/C [4]: 34.9%
- viability, T/C [5]: 26.7%
- viability, T/C [6]: 25.9%
- viability, T/C [7]: 92.7%
- viability, T/C [8]: 71.9%
- viability, T/C [9]: 59%
- viability, T/C [10]: 36.9%
- viability, T/C [11]: 29.5%
- viability, T/C [12]: 23.3%
- viability, T/C [13]: 98.8%
- viability, T/C [14]: 73.6%
- viability, T/C [15]: 47.8%
- viability, T/C [16]: 41.3%
- viability, T/C [17]: 28.6%
- viability, T/C [18]: 23.7%
- viability, T/C [19]: 82.8%
- viability, T/C [20]: 67.8%
- viability, T/C [21]: 50.4%
- viability, T/C [22]: 32.8%
- viability, T/C [23]: 27.6%
- viability, T/C [24]: 22.6%
- viability, T/C [25]: 73.3%
- viability, T/C [26]: 65.1%
- viability, T/C [27]: 38.6%
- viability, T/C [28]: 31%
- viability, T/C [29]: 26.4%
- viability, T/C [30]: 17.5%
- viability, T/C [31]: 73.2%
- viability, T/C [32]: 66.2%
- viability, T/C [33]: 40.9%
- viability, T/C [34]: 27%
- viability, T/C [35]: 26.2%
- viability, T/C [36]: 19%

SMILES: CCCS(=O)(=O)Nc1ccc(F)c(C(=O)c2c[nH]c3ncc(-c4ccc(Cl)cc4)cc23)c1F + CN(C)c1ccc(Nc2c3ccc(NC(=O)CCN4CCCC4)cc3nc3cc(NC(=O)CCN4CCCC4)ccc23)cc1
- IC50 (second compound 0.0316 µM): > 10 µM
- IC50 (second compound 0.1 µM): > 10 µM
- IC50 (second compound 0.316 µM): 9.61 µM
- IC50 (second compound 1 µM): > 10 µM
- IC50 (second compound 3.16 µM): 9.15 µM
- IC50 (second compound 10 µM): > 10 µM
- viability, T/C [1]: 118%
- viability, T/C [2]: 93.8%
- viability, T/C [3]: 100%
- viability, T/C [4]: 92.4%
- viability, T/C [5]: 116%
- viability, T/C [6]: 59.5%
- viability, T/C [7]: 90.5%
- viability, T/C [8]: 101%
- viability, T/C [9]: 96.7%
- viability, T/C [10]: 87.9%
- viability, T/C [11]: 103%
- viability, T/C [12]: 50.1%
- viability, T/C [13]: 98.4%
- viability, T/C [14]: 102%
- viability, T/C [15]: 94.1%
- viability, T/C [16]: 102%
- viability, T/C [17]: 113%
- viability, T/C [18]: 48.1%
- viability, T/C [19]: 91.9%
- viability, T/C [20]: 108%
- viability, T/C [21]: 103%
- viability, T/C [22]: 108%
- viability, T/C [23]: 107%
- viability, T/C [24]: 54.2%
- viability, T/C [25]: 96%
- viability, T/C [26]: 101%
- viability, T/C [27]: 108%
- viability, T/C [28]: 101%
- viability, T/C [29]: 112%
- viability, T/C [30]: 45.5%
- viability, T/C [31]: 90.9%
- viability, T/C [32]: 103%
- viability, T/C [33]: 99.8%
- viability, T/C [34]: 105%
- viability, T/C [35]: 108%
- viability, T/C [36]: 50.5%
